Results reported in US7981903B2, “2-[2-{phenylamino}-1H-pyrrolo[2,3-D]pyrimidin-4-yl)amino] benzamide derivatives as IGF-1R inhibitors for the treatment of cancer” (GlaxoSmithKline LLC, priority 2007, dated 2011).

How the values were obtained:
[1] = target: T1, NIH-3T3 cells overexpressing human IR (Homo sapiens, UniProt P06213); test: IR cellular autophosphorylation (DELFIA); assay type: cell-based; conditions: 2 h compound, insulin 3 ug/ml for 15 minutes, IC50 category
T1 construct: expressed in transfected cells; host or cells: NIH-3T3 (mouse fibroblasts)
T1 sequence (P06213 28-1382): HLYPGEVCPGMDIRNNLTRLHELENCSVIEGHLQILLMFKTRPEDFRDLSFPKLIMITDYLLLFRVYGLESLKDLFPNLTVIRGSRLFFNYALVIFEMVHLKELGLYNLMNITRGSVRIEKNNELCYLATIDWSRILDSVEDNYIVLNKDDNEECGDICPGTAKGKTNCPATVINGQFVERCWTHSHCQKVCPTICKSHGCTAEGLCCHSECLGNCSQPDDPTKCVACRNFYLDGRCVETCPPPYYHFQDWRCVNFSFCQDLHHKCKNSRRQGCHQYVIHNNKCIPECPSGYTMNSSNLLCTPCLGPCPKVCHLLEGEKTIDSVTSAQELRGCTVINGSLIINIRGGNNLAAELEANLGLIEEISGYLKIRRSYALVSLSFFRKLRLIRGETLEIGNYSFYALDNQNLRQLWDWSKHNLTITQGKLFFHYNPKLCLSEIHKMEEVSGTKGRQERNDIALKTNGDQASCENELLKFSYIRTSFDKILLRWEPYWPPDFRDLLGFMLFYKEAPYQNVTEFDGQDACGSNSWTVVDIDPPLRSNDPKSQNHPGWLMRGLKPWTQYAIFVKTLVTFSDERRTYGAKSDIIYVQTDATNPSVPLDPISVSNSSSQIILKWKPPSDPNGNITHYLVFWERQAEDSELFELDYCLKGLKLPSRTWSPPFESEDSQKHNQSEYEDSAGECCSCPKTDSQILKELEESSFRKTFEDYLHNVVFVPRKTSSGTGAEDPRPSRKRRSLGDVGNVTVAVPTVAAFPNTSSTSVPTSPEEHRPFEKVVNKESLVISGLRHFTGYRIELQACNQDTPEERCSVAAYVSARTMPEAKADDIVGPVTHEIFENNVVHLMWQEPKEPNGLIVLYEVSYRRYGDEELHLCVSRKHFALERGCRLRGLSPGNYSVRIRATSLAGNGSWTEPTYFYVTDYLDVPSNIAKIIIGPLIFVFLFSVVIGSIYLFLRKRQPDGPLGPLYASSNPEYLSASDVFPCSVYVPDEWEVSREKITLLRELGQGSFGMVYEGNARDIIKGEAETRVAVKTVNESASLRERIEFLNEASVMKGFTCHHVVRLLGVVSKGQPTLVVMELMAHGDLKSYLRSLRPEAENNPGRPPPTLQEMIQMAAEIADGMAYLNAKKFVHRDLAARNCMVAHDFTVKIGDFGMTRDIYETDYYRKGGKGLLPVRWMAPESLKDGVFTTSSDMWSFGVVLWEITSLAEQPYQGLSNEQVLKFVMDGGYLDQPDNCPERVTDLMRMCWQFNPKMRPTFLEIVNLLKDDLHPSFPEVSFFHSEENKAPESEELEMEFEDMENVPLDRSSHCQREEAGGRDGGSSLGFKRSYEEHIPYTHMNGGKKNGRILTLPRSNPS
Outline: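 Receptor autophosphorylation measured by DELFIA, capturing IGF-1R or IRβ and detecting with europium anti-pTyr, reported as percent of IGF-1- or insulin-stimulated signal. Compounds (30 uM to 1.5 nM) added 2 h before ligand, then 15 min stimulation (IGF-1 30 ng/ml or insulin 3 ug/ml).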

human IR (hIR) = target: T2, human IR (hIR) (Homo sapiens, UniProt P06213); test: TR-FRET kinase assay of purified hIR; assay type: biochemical; conditions: activated hIR 0.5 nM, 10 μM ATP, values given as pIC50 category
T2 construct: containing amino acid residues 979-1382 of human IR; made in house; host or cells: Sf9 cells (baculovirus), same process as hIGF1R
T2 sequence (P06213 979-1382): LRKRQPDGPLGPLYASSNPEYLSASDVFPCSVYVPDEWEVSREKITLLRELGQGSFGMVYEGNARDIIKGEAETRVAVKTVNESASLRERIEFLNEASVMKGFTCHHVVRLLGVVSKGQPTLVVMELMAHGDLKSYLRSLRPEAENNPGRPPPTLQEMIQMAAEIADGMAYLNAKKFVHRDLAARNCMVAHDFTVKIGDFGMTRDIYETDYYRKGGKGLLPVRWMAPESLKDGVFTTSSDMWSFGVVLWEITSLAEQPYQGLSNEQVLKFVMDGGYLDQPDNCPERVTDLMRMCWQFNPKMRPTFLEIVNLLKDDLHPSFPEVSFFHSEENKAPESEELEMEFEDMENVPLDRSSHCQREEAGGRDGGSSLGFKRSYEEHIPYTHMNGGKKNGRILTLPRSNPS

human IGF1R (hIGF1R) = target: T3, human IGF1R (hIGF1R) (Homo sapiens, UniProt P08069); test: TR-FRET kinase assay of purified hIGF1R; assay type: biochemical; conditions: activated hIGF1R 0.5 nM, 10 μM ATP, values given as pIC50 category, read-out: IGF-1R pIC50 (converted)
T3 construct: containing amino acid residues 957-1367 of human IGF1R; made in house; host or cells: Sf9 cells (baculovirus)
T3 sequence (P08069 957-1367): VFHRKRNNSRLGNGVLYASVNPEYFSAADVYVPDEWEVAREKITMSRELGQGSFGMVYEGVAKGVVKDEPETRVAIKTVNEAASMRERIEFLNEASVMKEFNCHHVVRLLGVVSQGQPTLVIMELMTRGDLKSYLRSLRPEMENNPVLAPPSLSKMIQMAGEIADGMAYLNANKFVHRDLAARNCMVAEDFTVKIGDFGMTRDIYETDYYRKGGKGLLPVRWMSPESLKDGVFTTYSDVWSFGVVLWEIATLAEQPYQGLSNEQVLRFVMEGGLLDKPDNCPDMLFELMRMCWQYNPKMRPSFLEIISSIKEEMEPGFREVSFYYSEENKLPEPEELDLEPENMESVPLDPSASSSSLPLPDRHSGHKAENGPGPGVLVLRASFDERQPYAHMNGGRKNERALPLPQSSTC

CCNC(=O)c1c(F)cc(F)cc1Nc1nc(Nc2cc3c(cc2OC)CCCN3C(=O)CN(C)C)nc2[nH]ccc12 [Example 180, 2-[(2-{[1-(N,N-dimethylglycyl)-6-(methyloxy)-1,2,3,4-tetrahydro-7-quinolinyl]amino}-1H-pyrrolo[2,3-d]pyrimidin-4-yl)amino]-N-ethyl-4,6-difluorobenzamide]
IC50 [1]: < 100 nM
IC50 (human IR (hIR)): 1.26 to 3.98 nM
IC50 (human IGF1R (hIGF1R)): 0.251 to 1 nM

COc1cc2c(cc1Nc1nc(Nc3cccc(F)c3C(N)=O)c3cc[nH]c3n1)N(C(=O)CN1CCOCC1)CC2 [Example 185, 2-fluoro-6-[(2-{[5-(methyloxy)-1-(4-morpholinylacetyl)-2,3-dihydro-1H-indol-6-yl]amino}-1H-pyrrolo[2,3-d]pyrimidin-4-yl)amino]benzamide]
IC50 [1]: > 500 nM
IC50 (human IR (hIR)): 5.01 to 158 nM
IC50 (human IGF1R (hIGF1R)): 5.01 to 200 nM

COc1cc2c(cc1Nc1nc(Nc3cccc(F)c3C(N)=O)c3cc[nH]c3n1)N(C(=O)CN1CCN(C(C)C)CC1)CC2 [Example 186, 2-fluoro-6-[(2-{[1-{[4-(1-methylethyl)-1-piperazinyl]acetyl}-5-(methyloxy)-2,3-dihydro-1H-indol-6-yl]amino}-1H-pyrrolo[2,3-d]pyrimidin-4-yl)amino]benzamide]
IC50 [1]: > 500 nM
IC50 (human IR (hIR)): 5.01 to 158 nM
IC50 (human IGF1R (hIGF1R)): 5.01 to 200 nM

COc1cc2c(cc1Nc1nc(Nc3cccc(F)c3C(N)=O)c3cc[nH]c3n1)N(C(=O)CCN1CCOCC1)CC2 [Example 187, 2-fluoro-6-{[2-({5-(methyloxy)-1-[3-(4-morpholinyl)propanoyl]-2,3-dihydro-1H-indol-6-yl}amino)-1H-pyrrolo[2,3-d]pyrimidin-4-yl]amino}benzamide]
IC50 [1]: 100 to 500 nM
IC50 (human IR (hIR)): 5.01 to 158 nM
IC50 (human IGF1R (hIGF1R)): 5.01 to 200 nM

COc1cc2c(cc1Nc1nc(Nc3cccc(F)c3C(N)=O)c3cc[nH]c3n1)N(C(=O)CCN1CCN(C(C)C)CC1)CC2 [Example 188, 2-fluoro-6-[(2-{[1-{3-[4-(1-methylethyl)-1-piperazinyl]propanoyl}-5-(methyloxy)-2,3-dihydro-1H-indol-6-yl]amino}-1H-pyrrolo[2,3-d]pyrimidin-4-yl)amino]benzamide]
IC50 [1]: > 500 nM
IC50 (human IR (hIR)): 5.01 to 158 nM
IC50 (human IGF1R (hIGF1R)): 5.01 to 200 nM

COc1cc2c(cc1Nc1nc(Nc3cc(F)cc(F)c3C(N)=O)c3cc[nH]c3n1)N(C(=O)CN(C)C)CC2 [Example 189, 2-[(2-{[1-(N,N-dimethylglycyl)-5-(methyloxy)-2,3-dihydro-1H-indol-6-yl]amino}-1H-pyrrolo[2,3-d]pyrimidin-4-yl)amino]-4,6-difluorobenzamide]
IC50 [1]: < 100 nM
IC50 (human IR (hIR)): 0.251 to 1 nM
IC50 (human IGF1R (hIGF1R)): 0.251 to 1 nM

CNC(=O)c1c(F)cc(F)cc1Nc1nc(Nc2cc3c(cc2OC)CCN3C(=O)CN(C)C)nc2[nH]ccc12 [Example 190, 2-[(2-{[1-(N,N-dimethylglycyl)-5-(methyloxy)-2,3-dihydro-1H-indol-6-yl]amino}-1H-pyrrolo[2,3-d]pyrimidin-4-yl)amino]-4,6-difluoro-N-methylbenzamide]
IC50 [1]: < 100 nM
IC50 (human IR (hIR)): 0.251 to 1 nM
IC50 (human IGF1R (hIGF1R)): 0.251 to 1 nM

CCCN(CCC)[C@@H](C)C(=O)N1CCc2cc(OC)c(Nc3nc(Nc4cccc(F)c4C(=O)NC)c4cc[nH]c4n3)cc21 [Example 191, 2-[(2-{[1-(N,N-dipropyl-L-alanyl)-5-(methyloxy)-2,3-dihydro-1H-indol-6-yl]amino}-1H-pyrrolo[2,3-d]pyrimidin-4-yl)amino]-6-fluoro-N-methylbenzamide]
IC50 [1]: > 500 nM
IC50 (human IR (hIR)): 5.01 to 158 nM
IC50 (human IGF1R (hIGF1R)): 5.01 to 200 nM

CCCN(CCC)[C@@H](C)C(=O)N1CCc2cc(OC)c(Nc3nc(Nc4cccc(F)c4C(N)=O)c4cc[nH]c4n3)cc21 [Example 192, 2-[(2-{[1-(N,N-dipropyl-L-alanyl)-5-(methyloxy)-2,3-dihydro-1H-indol-6-yl]amino}-1H-pyrrolo[2,3-d]pyrimidin-4-yl)amino]-6-fluorobenzamide]
IC50 [1]: < 100 nM
IC50 (human IR (hIR)): 1.26 to 3.98 nM
IC50 (human IGF1R (hIGF1R)): 5.01 to 200 nM

CNC(=O)c1c(F)cccc1Nc1nc(Nc2cc3c(cc2OC)CCN3C(=O)C(C)(C)O)nc2[nH]ccc12 [Example 193, 2-fluoro-6-[(2-{[1-(2-hydroxy-2-methylpropanoyl)-5-(methyloxy)-2,3-dihydro-1H-indol-6-yl]amino}-1H-pyrrolo[2,3-d]pyrimidin-4-yl)amino]-N-methylbenzamide]
IC50 [1]: > 500 nM
IC50 (human IR (hIR)): 5.01 to 158 nM
IC50 (human IGF1R (hIGF1R)): 5.01 to 200 nM

COc1cc2c(cc1Nc1nc(Nc3cccc4c3C(=O)NC4)c3cc[nH]c3n1)N(C(=O)CN(C)C)CC2 [Example 200, 7-[(2-{[1-(N,N-dimethylglycyl)-5-(methyloxy)-2,3-dihydro-1H-indol-6-yl]amino}-1H-pyrrolo[2,3-d]pyrimidin-4-yl)amino]-2,3-dihydro-1H-isoindol-1-one]
IC50 [1]: < 100 nM
IC50 (human IR (hIR)): 0.251 to 1 nM
IC50 (human IGF1R (hIGF1R)): 0.251 to 1 nM

CNC(=O)c1c(F)cccc1Nc1nc(Nc2cc3c(cc2OC)CCCN3C(=O)[C@@H]2CCCN2C)nc2[nH]ccc12 [Example 202, 2-fluoro-N-methyl-6-[(2-{[6-(methyloxy)-1-(1-methyl-L-prolyl)-1,2,3,4-tetrahydro-7-quinolinyl]amino}-1H-pyrrolo[2,3-d]pyrimidin-4-yl)amino]benzamide]
IC50 [1]: 100 to 500 nM
IC50 (human IR (hIR)): 5.01 to 158 nM
IC50 (human IGF1R (hIGF1R)): 5.01 to 200 nM

COc1cc(OCCN2CCN(C)CC2)ccc1Nc1nc(Nc2cccc(F)c2C(N)=O)c2cc[nH]c2n1 [Example 203, 2-fluoro-6-({2-[(2-(methyloxy)-4-{[2-(4-methyl-1-piperazinyl)ethyl]oxy}phenyl)amino]-1H-pyrrolo[2,3-d]pyrimidin-4-yl}amino)benzamide]
IC50 [1]: < 100 nM
IC50 (human IR (hIR)): 1.26 to 3.98 nM
IC50 (human IGF1R (hIGF1R)): 5.01 to 200 nM

COc1cc(N2CCN(S(C)(=O)=O)CC2)ccc1Nc1nc(Nc2cccc(F)c2C(N)=O)c2cc[nH]c2n1 [Example 204, 2-fluoro-6-{[2-({2-(methyloxy)-4-[4-(methylsulfonyl)-1-piperazinyl]phenyl}amino)-1H-pyrrolo[2,3-d]pyrimidin-4-yl]amino}benzamide]
IC50 [1]: > 500 nM
IC50 (human IR (hIR)): 1.26 to 3.98 nM
IC50 (human IGF1R (hIGF1R)): 5.01 to 200 nM

COc1cc(OCCCN2CCN(C)CC2)ccc1Nc1nc(Nc2cccc(F)c2C(N)=O)c2cc[nH]c2n1 [Example 205, 2-fluoro-6-({2-[(2-(methyloxy)-4-{[3-(4-methyl-1-piperazinyl)propyl]oxy}phenyl)amino]-1H-pyrrolo[2,3-d]pyrimidin-4-yl}amino)benzamide]
IC50 [1]: 100 to 500 nM
IC50 (human IR (hIR)): 1.26 to 3.98 nM
IC50 (human IGF1R (hIGF1R)): 5.01 to 200 nM

COc1cc(N2CCCN(S(C)(=O)=O)CC2)ccc1Nc1nc(Nc2cccc(F)c2C(N)=O)c2cc[nH]c2n1 [Example 207, 2-fluoro-6-{[2-({2-(methyloxy)-4-[4-(methylsulfonyl)hexahydro-1H-1,4-diazepin-1-yl]phenyl}amino)-1H-pyrrolo[2,3-d]pyrimidin-4-yl]amino}benzamide]
IC50 [1]: > 500 nM
IC50 (human IR (hIR)): 5.01 to 158 nM
IC50 (human IGF1R (hIGF1R)): 5.01 to 200 nM

COc1cc(N2CCCN(C(C)C)CC2)ccc1Nc1nc(Nc2cccc(F)c2C(N)=O)c2cc[nH]c2n1 [Example 208, 2-fluoro-6-[(2-{[4-[4-(1-methylethyl)hexahydro-1H-1,4-diazepin-1-yl]-2-(methyloxy)phenyl]amino}-1H-pyrrolo[2,3-d]pyrimidin-4-yl)amino]benzamide]
IC50 [1]: 100 to 500 nM
IC50 (human IR (hIR)): 5.01 to 158 nM
IC50 (human IGF1R (hIGF1R)): 5.01 to 200 nM

COc1cc2c(cc1Nc1nc(Nc3cccc(F)c3C(N)=O)c3cc[nH]c3n1)N(C(=O)CN(C)C)CCC2 [Example 210, 2-[(2-{[1-(N,N-dimethylglycyl)-6-(methyloxy)-1,2,3,4-tetrahydro-7-quinolinyl]amino}-1H-pyrrolo[2,3-d]pyrimidin-4-yl)amino]-6-fluorobenzamide]
IC50 [1]: < 100 nM
IC50 (human IR (hIR)): 0.251 to 1 nM
IC50 (human IGF1R (hIGF1R)): 0.251 to 1 nM

COc1cc2c(cc1Nc1nc(Nc3cccc(F)c3C(N)=O)c3cc[nH]c3n1)NCCC2 [Example 211, 2-fluoro-6-[(2-{[6-(methyloxy)-1,2,3,4-tetrahydro-7-quinolinyl]amino}-1H-pyrrolo[2,3-d]pyrimidin-4-yl)amino]benzamide]
IC50 [1]: > 500 nM
IC50 (human IR (hIR)): 5.01 to 158 nM
IC50 (human IGF1R (hIGF1R)): 5.01 to 200 nM

CNC(=O)c1c(F)cccc1Nc1nc(Nc2cc3c(cc2OC)CCCN3C(=O)CCN(C)C)nc2[nH]ccc12 [Example 213, 2-[(2-{[1-(N,N-dimethyl-β-alanyl)-6-(methyloxy)-1,2,3,4-tetrahydro-7-quinolinyl]amino}-1H-pyrrolo[2,3-d]pyrimidin-4-yl)amino]-6-fluoro-N-methylbenzamide]
IC50 [1]: > 500 nM
IC50 (human IR (hIR)): 5.01 to 158 nM
IC50 (human IGF1R (hIGF1R)): 5.01 to 200 nM

COc1cc2c(cc1Nc1nc(Nc3cccc(F)c3C(N)=O)c3cc[nH]c3n1)N(C(=O)CCN(C)C)CCC2 [Example 214, 2-[(2-{[1-(N,N-dimethyl-β-alanyl)-6-(methyloxy)-1,2,3,4-tetrahydro-7-quinolinyl]amino}-1H-pyrrolo[2,3-d]pyrimidin-4-yl)amino]-6-fluorobenzamide]
IC50 [1]: 100 to 500 nM
IC50 (human IR (hIR)): 5.01 to 158 nM
IC50 (human IGF1R (hIGF1R)): 5.01 to 200 nM

COc1cc2c(cc1Nc1nc(Nc3cccc(F)c3C(N)=O)c3cc[nH]c3n1)N(C(=O)CN1CCCCC1)CCC2 [Example 218, 2-fluoro-6-[(2-{[6-(methyloxy)-1-(1-piperidinylacetyl)-1,2,3,4-tetrahydro-7-quinolinyl]amino}-1H-pyrrolo[2,3-d]pyrimidin-4-yl)amino]benzamide]
IC50 [1]: < 100 nM
IC50 (human IR (hIR)): 0.251 to 1 nM
IC50 (human IGF1R (hIGF1R)): 0.251 to 1 nM
